From patent US20090306149A1, “USE OF BIARYLCARBOXAMIES IN THE TREATMENT OF HEDGEHOG PATHWAY-RELATED DISORDERS” (priority 2006, published 2009) come the findings set out here.

Read-outs that look alike come from different tables or passages of the source.

The subject of test [1] is gli-luciferase activity (Hh pathway) in TMHh12 cells. Kind of test: "IC50 shift" gli-luciferase reporter assay in TMHh12 cells with a small molecule Smo agonist. Format: cell-based, mouse. The conditions noted are these: Mus musculus, TMHh12, TMHh12 cells. The method, then:
TM3 cells (mouse) transfected with a new proprietary reporter construct (pTA-8xGli-Luc). The pTA-8xGli-Luc reporter produces approx. 4 fold more luciferase activity than classical 8xGli-LUC. A highly responsive stable clone has been selected (TMHh12) with >10-fold signal/noise ratio and <10% CV in 384 well format.
“IC50 shift” assays in TMHh12 cells. IC50 for antagonism of gli-luciferase activity was tested in the presence of increasing concentrations of a small molecule agonist which binds to Smo with 1 nM affinity and activates the Hh pathway.
Table 1 lists the IC50 of antagonists determined in the presence of different (1 nM and 25 nM) concentrations of a small agonist of Smoothened.
(In general: In a reporter assay the amount or activity of a reporter protein is the signal.)

A further test concerns the target Smoothened (Homo sapiens, UniProt Q99835). Kind of test: Smo binding assay, displacement of a small molecule agonist of Smoothened, filter binding format. The text has this: A Smo binding assay was developed using radio-labeled smoothened agonist for compound competition.
Table 1, infra; lists the IC50 for displacement of a small molecule agonist of Smoothened determined in a filter binding format.

Setting [2] is: 1 nM small molecule Smo agonist, read-out: Gli_luc (1 nM Smo agonist) IC50.
Where [3] appears, read: 25 nM small molecule Smo agonist, read-out: Gli_luc (25 nM Smo agonist) IC50.

Smoothened, sequence (Q99835 28-787): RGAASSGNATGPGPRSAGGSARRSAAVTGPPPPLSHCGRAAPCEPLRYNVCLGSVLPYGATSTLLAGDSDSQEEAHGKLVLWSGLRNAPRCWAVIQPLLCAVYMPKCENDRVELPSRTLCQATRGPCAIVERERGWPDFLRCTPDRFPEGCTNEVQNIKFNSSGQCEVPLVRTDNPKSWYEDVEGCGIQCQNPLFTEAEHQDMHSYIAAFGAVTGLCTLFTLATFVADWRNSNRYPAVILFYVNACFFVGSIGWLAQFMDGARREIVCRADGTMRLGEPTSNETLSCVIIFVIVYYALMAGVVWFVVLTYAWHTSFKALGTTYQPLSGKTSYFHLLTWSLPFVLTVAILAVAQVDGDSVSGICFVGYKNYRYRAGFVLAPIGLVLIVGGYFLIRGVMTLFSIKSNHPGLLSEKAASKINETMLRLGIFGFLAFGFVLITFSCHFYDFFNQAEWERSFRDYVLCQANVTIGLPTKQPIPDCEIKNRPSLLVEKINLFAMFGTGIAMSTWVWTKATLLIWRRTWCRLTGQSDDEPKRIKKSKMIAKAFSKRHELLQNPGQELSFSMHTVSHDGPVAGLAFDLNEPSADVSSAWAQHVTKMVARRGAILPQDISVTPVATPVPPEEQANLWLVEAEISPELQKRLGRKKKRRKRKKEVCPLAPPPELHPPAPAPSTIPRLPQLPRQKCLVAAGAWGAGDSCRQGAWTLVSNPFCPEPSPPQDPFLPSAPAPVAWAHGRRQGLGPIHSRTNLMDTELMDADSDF

Broadly, the IC50 is the point on the concentration scale where inhibition reaches its midpoint. As to `Cc1cccc(C(=O)Nc2ccc3c(c2)C[C@@H](Nc2ccccc2)C3)c1-c1ccc(C(F)(F)F)cc1` [Example 74, 6-Methyl-4′-trifluoromethyl-biphenyl-2-carboxylic acid ((S)-2-phenylamino-indan-5-yl)-amide], the IC50 in test [1] (setting [2]) was 19 nM; in test [1] (setting [3]), 557 nM; at Smoothened it was 47 nM.
The matching figures for `COc1ccc(CN[C@H]2Cc3ccc(NC(=O)c4cccc(C)c4-c4ccc(C(F)(F)F)cc4)cc3C2)cc1` [Example 23]: 349 nM, 3040 nM and 93 nM.
The matching figures for `COC(=O)N1CCC(CNC2Cc3ccc(NC(=O)c4cccc(C)c4-c4ccc(C(F)(F)F)cc4)cc3C2)CC1` (centres unmarked) [Example 51]: 7000 nM, 11200 nM and 13700 nM.
As to `O=C(Nc1ccc2c(c1)CCC(NS(=O)(=O)c1ccccc1F)CC2)c1ccccc1-c1ccc(C(F)(F)F)cc1` (centres unmarked) [Example 104], the IC50 stood at 3560 nM in test [1] (setting [2]) and 3520 nM at Smoothened.
As for `Cc1cccc(C(=O)Nc2ccc3c(c2)CC(NCc2ccncc2)C3)c1-c1ccc(C(F)(F)F)cc1` (centres unmarked) [Example 67], the IC50 turned out to be 142 nM in test [1] (setting [2]), 4190 nM in test [1] (setting [3]) and 486 nM at Smoothened.
The corresponding values for `Cc1cccc(C(=O)Nc2ccc3c(c2)CC(NCc2cccn2C)C3)c1-c1ccc(C(F)(F)F)cc1` (centres unmarked) [Example 59] are 112 nM, 3490 nM and 21 nM.
The matching figures for `COC(=O)NC(CNC1Cc2ccc(NC(=O)c3cccc(C)c3-c3ccc(C(F)(F)F)cc3)cc2C1)Cc1ccccc1` (centres unmarked) [Example 49]: 226 nM, 2680 nM and 118 nM.
The corresponding values for `Cc1cccc(C(=O)Nc2ccc3c(c2)CC(NCc2cc4ccccc4o2)C3)c1-c1ccc(C(F)(F)F)cc1` (centres unmarked) [Example 41] are 82 nM, 616 nM and 3 nM.
For `Cc1ccc(-c2ccc(C(F)(F)F)cc2)c(C(=O)Nc2ccc3c(c2)CC(NCc2ccccn2)C3)c1` (centres unmarked) [Example 54], the results for the IC50 (in test [1] (setting [2]); in test [1] (setting [3]); on Smoothened) were 8680 nM, 6800 nM and 16700 nM, respectively.
The matching figures for `O=C(Nc1ccc2c(c1)CC(NCc1ccccc1)C2)c1ccccc1-c1ccc(C(F)(F)F)cc1` (centres unmarked) [Example 56]: 165 nM, 4180 nM and 271 nM.
The matching figures for `Cc1cccc(C(=O)Nc2ccc3c(c2)CCC(NS(=O)(=O)c2cccs2)CC3)c1-c1ccc(C(F)(F)F)cc1` (centres unmarked) [Example 105]: 833 nM, 20400 nM and 338 nM.
The matching figures for `Cc1cccc(C(=O)Nc2ccc3c(c2)CC(NCc2ccco2)C3)c1-c1ccc(C(F)(F)F)cc1` (centres unmarked) [Example 62]: 141 nM, 1630 nM and 103 nM.
In the case of `Cc1csc(CN[C@H]2Cc3ccc(NC(=O)c4cccc(C)c4-c4ccc(C(F)(F)F)cc4)cc3C2)n1` [Example 5, 6-Methyl-4′-trifluoromethyl-biphenyl-2-carboxylic acid {(S)-2-[(4-methyl-thiazol-2-ylmethyl)-amino]-indan-5-yl}-amide], the values for the IC50 (in test [1] (setting [2]); in test [1] (setting [3]); at Smoothened) were less than 5 nM, 139 nM and 3 nM, respectively.
The corresponding values for `Cc1cccc(C(=O)Nc2ccc3c(c2)C[C@@H](NCc2cccs2)C3)c1-c1ccc(C(F)(F)F)cc1` [Example 7] are less than 5 nM, 141 nM and 14 nM.
The matching figures for `Cc1cccc(C(=O)Nc2ccc3c(c2)CC(NCc2ccc(-c4ccc(Cl)cc4)o2)C3)c1-c1ccc(C(F)(F)F)cc1` (centres unmarked) [Example 64]: 48 nM, 1310 nM and 135 nM.
Turning to `Cc1cccc(C(=O)Nc2ccc3c(c2)C[C@@H](NCc2ccc(-n4ccnc4)cc2)C3)c1-c1ccc(C(F)(F)F)cc1` [Example 28], the IC50 in test [1] (setting [2]) was 12 nM; in test [1] (setting [3]), 481 nM; at Smoothened, 2 nM.
The corresponding values for `O=C(Nc1ccc2c(c1)CC(NCc1ncc[nH]1)C2)c1cccc(C(F)(F)F)c1-c1ccc(C(F)(F)F)cc1` (centres unmarked) [Example 60] are 13200 nM, 23600 nM and 3650 nM.
The corresponding values for `Cc1cccc(C(=O)Nc2ccc3c(c2)C[C@@H](NCc2cnc4ccccc4c2)C3)c1-c1ccc(C(F)(F)F)cc1` [Example 29] are 1670 nM, 4920 nM and 490 nM.
The corresponding values for `CCOC(=O)NC1CCc2ccc(NC(=O)c3cccc(C)c3-c3ccc(C(F)(F)F)cc3)cc2CC1` (centres unmarked) [Example 84] are 700 nM, 4480 nM and 881 nM.
With `Cc1ccc(CN[C@H]2Cc3ccc(NC(=O)c4cccc(C)c4-c4ccc(C(F)(F)F)cc4)cc3C2)o1` [Example 12], the results for the IC50 (in test [1] (setting [2]); in test [1] (setting [3]); on Smoothened) were less than 5 nM, 141 nM and 4 nM, respectively.
The corresponding values for `Cc1cccc(C(=O)Nc2ccc3c(c2)C[C@@H](NCc2ccc(Cl)s2)C3)c1-c1ccc(C(F)(F)F)cc1` [Example 26] are 35 nM, 458 nM and 8 nM.
The matching figures for `Cc1cccc(C(=O)Nc2ccc3c(c2)C[C@@H](NCc2ccc4c(c2)CCO4)C3)c1-c1ccc(C(F)(F)F)cc1` [Example 31]: 281 nM, 3040 nM and 28 nM.
Consider `Cc1cccc(C(=O)Nc2ccc3c(c2)C[C@@H](NCc2ccncc2)C3)c1-c1ccc(C(F)(F)F)cc1` [Example 20], for which the IC50 in test [1] (setting [2]) turned out to be 94 nM; in test [1] (setting [3]), 964 nM; at Smoothened, 151 nM.
The matching figures for `CCCNC1Cc2ccc(NC(=O)c3cccc(C)c3-c3ccc(C(F)(F)F)cc3)cc2C1` (centres unmarked) [Example 58]: 651 nM, 10100 nM and 4300 nM.
The corresponding values for `Cc1cccc(C(=O)Nc2ccc3c(c2)CC(NCc2c[nH]c4ccccc24)C3)c1-c1ccc(C(F)(F)F)cc1` (centres unmarked) [Example 61] are 2100 nM, 11900 nM and 299 nM.
The corresponding values for `Cc1cccc(C(=O)Nc2ccc3c(c2)CC(NCc2ccccn2)C3)c1-c1ccc(C(F)(F)F)cc1` (centres unmarked) [Example 45] are 85 nM, 1140 nM and 141 nM.
`Cc1cccc(C(=O)Nc2ccc3c(c2)C[C@@H](NCc2ccco2)C3)c1-c1ccc(C(F)(F)F)cc1` [Example 11]: the figures for the IC50 (in test [1] (setting [2]); in test [1] (setting [3]); on Smoothened) were less than 5 nM, 371 nM and 14 nM, respectively.
The matching figures for `Cc1cccc(C(=O)Nc2ccc3c(c2)CCC(NCc2ccccc2)CC3)c1-c1ccc(Cl)cc1` (centres unmarked) [Example 69]: 2490 nM, 12600 nM and 619 nM.
Regarding `Cc1cccc(C(=O)Nc2ccc3c(c2)CC(NCc2nccn2C)C3)c1-c1ccc(C(F)(F)F)cc1` (centres unmarked) [Example 40], the IC50 in test [1] (setting [2]) was determined as 145 nM; in test [1] (setting [3]), 1910 nM; at Smoothened it was 445 nM.
`Cc1cccc(C(=O)Nc2ccc3c(c2)C[C@@H](N(C)Cc2ccccn2)C3)c1-c1ccc(C(F)(F)F)cc1` [Example 38]: the figures for the IC50 (in test [1] (setting [2]); in test [1] (setting [3]); at Smoothened) were 1720 nM, 13300 nM and 6250 nM, respectively.
